According to US4788217A, “Pesticidal carbamates” (priority 1984, dated 1988):
Read-outs that look alike come from different tables or passages of the source.

Assays:
[1] = tested on: bean beetle (Acanthoscalides obtectus); assay: Pesticidal effect on bean beetle, treated filter paper discs (Example 15, Table I); type: in vivo; conditions: 24 hours, killed and paralysed
Experimental: From the compounds of the present invention a series of dilution is prepared in acetone; concentration 1, 0.2, 0.04, 0.008 and 0.0016%, respectively. The solutions thus obtained (0.5 ml) are poured dropwise onto Whatman No. 1. filter paper discs (diameter 90 mm) placed in Petri-dishes. After the solvent has evaporated 1-2 weeks' old bean beetle (Acanthoscalides obtectus) images are placed into the Petri-dishes. 3 replicates (10-15 insects each) are used for each concentration. The pesticidal effect of the test compounds is evaluated after 24 hours, on the basis of the percental ratio of the killed and paralysed individuals.

[2] = tested on: house fly (Musca domestica); assay: Insecticidal activity on house fly, treated filter paper discs (Example 16, Table II); type: in vivo; design: mortality: concentration or dose not given beside the values
Experimental: From the test compounds a series of dilution disclosed in Example 15 is prepared whereupon 3-5 days' old house fly (Musca domestica) images being under slight carbon dioxide narcosis are placed onto the infected treated filter paper discs. Three replicates ([…] each) are used for each concentration. The insecticidal activity of the test compounds and that of the referent compounds is evaluated after 24 hours on the basis of the percental ratio of the killed and paralyzed flies. In the solvent control grop there was no mortality.

[3] = in vivo; design: species or system rats; conditions: rat, po
Excerpt: The acute toxicity data (p.o.) of the test compounds are disclosed in Table IV.

[4] = tested on: small American flour-beetle (Tribolium confusum) larvae; assay: Insecticidal effect on flour-beetle larvae, application onto dorsal cuticulum (Example 17, Table III); conditions: topical, 96 h
Experimental: From the 2,3-dihydro-2,2-dimethyl-7-benzofuranyl-N-methyl-N-(N'-morpholinomethyl)-carbamate, dioxacarb and carbofuran series of dilutions are prepared in acetone: the active ingredient content of the solutions amounts to 40.5, 13.5, 4.5, 1.5, 0.5, 0.16 and 0.05 […] per […], respectively. The solutions (0.5 μl) are applied with the aid of a Hamilton syringe onto the dorsal cuticulum of small American flour-beetle (Tribolium confusum) of L6 larva stage. The age of the larvae is determined on the basis of the average larva weight (=1.81±0.37 mg/larva) See Sokoloff 1972.
Two replicates are used for each concentration (10 individuals per replicate). The insecticidal effect of the test compounds is evaluated after 96 hours on the basis of the percental ratio of killed larvae.

[5] = tested on: house fly (Musca domestica); assay: whole plant or invertebrate; type: in vivo
Experimental: From the compound according to Example 1 a series of dilution is prepared in acetone; concentration: 0.6, 0.2, 0.067 and 0.022% by weight, respectively. From these solutions 0.5 ml each is poured dropwise onto Whatman No. 1 filter paper discs (diameter 90 mm) placed in Petri-dishes. The discs were previously treated with 0.5 ml of a 0.04% piperonyl butoxide solution. After the evaporation of the acetone 3-5 days' old house fly (Musca domestica) imagos being under slight carbon dioxide narcosis are placed onto the filter paper discs. The test is evaluated as described in Example 16.

[6] = tested on: rats; conditions: p.o.; cited from earlier work
[7] = concentration of active ingredient 0.0016%
[8] = concentration of active ingredient 0.008%
[9] = concentration of active ingredient 0.04%
[10] = concentration of active ingredient 0.2%
[11] = concentration of active ingredient 1%
[12] = female rats, p.o., read-out: acute toxicity (p.o.) on female rats
[13] = male rats, p.o., read-out: acute toxicity (p.o.) on male rats

Row | Compound | mortality % [1, 7] [%] | mortality % [1, 8] [%] | mortality % [1, 9] [%] | mortality % [1, 10] [%] | mortality % [1, 11] [%] | mortality at 0.0016 % ([2]; 24 h) [%] | mortality at 0.04 % ([2]; 24 h) [%] | mortality at 0.08 % ([2]; 24 h) [%] | mortality at 0.2 % ([2]; 24 h) [%] | mortality at 1 % ([2]; 24 h) [%] | LD50 [3, 12] [mg/kg] | LD50 [3, 13] [mg/kg] | mortality at 0.03 µg/larva [4] [%] | mortality at 0.16 µg/larva [4] [%] | mortality at 0.5 µg/larva [4] [%] | mortality at 1.5 µg/larva [4] [%] | mortality at 4.5 µg/larva [4] [%] | mortality at 13 µg/larva [4] [%] | mortality at 40.5 µg/larva [4] [%] | also measured
1 | CCOC(=O)CCN(CN(C)C(=O)Oc1cccc2c1OC(C)(C)C2)C(C)C [Example 3, 2,3-dihydro-2,2-dimethyl-7-benzofuranyl-N-methyl-N-[(N'-isopropyl)-N'-(β-carbethoxy-ethyl)-amino-methyl]-carbamate] | 0 | 27 | 53 | 80 | 97 | 0 | 40 | 33 | 70 | 97 | 31.8 | 23.3 |  |  |  |  |  |  |  | 
2 | COc1ccc(CCNCN(C)C(=O)Oc2cccc3c2OC(C)(C)C3)cc1OC [Example 4, 2,3-dihydro-2,2-dimethyl-7-benzofuranyl-N-methyl-N-[3,4-(dimethoxy)-phenylethyl]-amino-methyl-carbamate] | 0 | 37 | 70 | 87 | 100 | 0 | 37 | 20 | 83 | 100 |  |  |  |  |  |  |  |  |  | 
3 | CC(C)NCN(C)C(=O)Oc1cccc2c1OC(C)(C)C2 [Example 2, 2,3-dihydro-2,2-dimethyl-7-benzofuranyl-N-methyl-N-/isopropyl-amino-methyl/-carbamate] | 0 | 40 | 60 | 100 | 100 | 0 | 30 | 10 | 67 | 90 |  |  |  |  |  |  |  |  |  | 
4 | CNC(=O)Oc1ccccc1C1OCCO1 [Dioxacarb, reference compound] | 0 | 30 | 43 | 93 | 100 | 0 | 17 | 10 | 90 | 100 |  |  | 25 | 40 | 45 | 50 | 50 | 55 | 80 | 
5 | CNC(=O)Oc1cccc2c1OC(C)(C)C2 [Carbofuran, 2,3-dihydro-2,2-dimethyl-benzofurane-7-yl-methyl-carbamate, reference compound] | 0 | 93 | 100 | 100 | 100 |  |  |  |  |  |  |  | 30 | 70 | 100 | 100 | 100 | 100 | 100 | mortality ([2]; 24 hours, killed and paralyzed): 53%; mortality at 0.0016 % ([2]; concentration of active ingredient 0.0016%, 24 hours, killed and paralyzed, read-out: mortality %): 43%; mortality at 0.04 % ([2]; concentration of active ingredient 0.04%, 24 hours, killed and paralyzed, read-out: mortality %): 67%; mortality at 0.2 % ([2]; concentration of active ingredient 0.2%, 24 hours, killed and paralyzed, read-out: mortality %): 100%; mortality at 1 % ([2]; concentration of active ingredient 1%, 24 hours, killed and paralyzed, read-out: mortality %): 100%; LD50 ([3]; acute toxicity (p.o.) on male rats): 8 to 14 mg/kg; mortality at 0.022 % ([5]; concentration of active ingredient 0.022%, evaluated as Example 16 (24 hours), read-out: mortality %): 71%; mortality at 0.067 % ([5]; concentration of active ingredient 0.067%, evaluated as Example 16 (24 hours), read-out: mortality %): 100%; mortality at 0.2 % ([5]; concentration of active ingredient 0.2%, evaluated as Example 16 (24 hours), read-out: mortality %): 100%; mortality at 0.6 % ([5]; concentration of active ingredient 0.6%, evaluated as Example 16 (24 hours), read-out: mortality %): 100%; acute toxicity LD50 [6]: 8 to 10 mg/kg
6 | CN(CN1CCOCC1)C(=O)Oc1cccc2c1OC(C)(C)C2 [Example 1, 2,3-dihydro-2,2-dimethyl-7-benzofuranyl-N-methyl-N-(N'-morpholinyl-methyl)-carbamate] | 0 | 50 | 87 | 97 | 100 | 30 | 43 | 40 | 80 | 100 | 50 | 50 | 75 | 80 | 90 | 90 | 95 | 100 | 100 | mortality at 0.022 % ([5]; 24 h): 32%; mortality at 0.067 % ([5]; 24 h): 78%; mortality at 0.2 % ([5]; 24 h): 100%; mortality at 0.6 % ([5]; 24 h): 100%
